Results from patent publication US11091876B2, “Moisture resistant biodegradable composition” (AUTOM RIVER INC., priority 2015, dated 2021).

Legend:
plants = details: cited from earlier work
mosquitoes = assay: Mosquito mortality with insecticide-sprayed water-filled containers in a closed area; assay type: in vivo; details: containers double sprayed, after about 4 weeks
Method: The biodegradable containers also successfully functioned as a mosquito trap. For example, containers were double sprayed with lambda-cyalothrin, filled with water and placed in a closed area with a known number of mosquitoes. After about 4 weeks, mosquito mortality was measured by counting the number of live mosquitoes compared to the dead mosquitoes. 100% mosquito mortality was achieved.

CC1(C)C(C=C(Cl)Cl)C1C(=O)OCc1cccc(Oc2ccccc2)c1 (stereo not drawn) [permethrin]
incompatibility on cultivated plants (plants): No incompatibility has been observed | phytotoxicity to most plants (plants; when used as directed): not phytotoxic

CC1(C)[C@H](C(=O)O[C@H](C#N)c2cccc(Oc3ccccc3)c2)[C@@H]1/C=C(\Cl)C(F)(F)F [lambda-cyalothrin]
mosquito mortality (mosquitoes): 100%
